Results as given in article PMC7917901 (Marine Drugs, 2021).
Entries after “also recorded” stand apart in the source; their conditions may differ. Positions of bridges follow the written chain, without caps; N, C: chain ends. Residues, ends and D or L forms follow the SMILES beside them.

What was measured:
naïve C57BL6/J mice [1] = conditions: mouse, in vivo
[2] = system: surgery-induced mechanical allodynia; parameters: species or system mice (C57BL/6J); conditions: mouse, in vivo
[3] = in vivo; cited from earlier work
CaV channel = conditions: cited from earlier work
[4] = system: oxaliplatin-induced mechanical allodynia; parameters: species or system mice (C57BL/6J); conditions: mouse, in vivo
naïve C57BL6/J mice [5] = conditions: mouse, in vivo; remark: listed apart in the source
[6] = system: oxaliplatin-induced mechanical allodynia; parameters: species or system mice (C57BL/6J); conditions: mouse, in vivo; remark: listed apart in the source
mouse inflammatory pain = conditions: in vivo, sc; cited from earlier work
naïve C57BL6/J mice [7] = conditions: mouse, in vivo; remark: listed apart in the source
[8] = system: cisplatin-induced mechanical allodynia; parameters: species or system mice (C57BL/6J); conditions: mouse, in vivo
[9] = system: surgery-induced thermal allodynia; parameters: species or system mice (C57BL/6J); conditions: mouse, in vivo
[10] = target: T1, endogenous CaV2.2 channels, expressed in the SH-SY5Y cells (Homo sapiens, UniProt Q00975); test: cell-based
T1 construct: endogenous CaV2.2 channels, expressed in the SH-SY5Y cells; endogenous in cells; host or cells: SH-SY5Y human neuroblastoma cells
T1 sequence (Q00975 whole entry, looked up): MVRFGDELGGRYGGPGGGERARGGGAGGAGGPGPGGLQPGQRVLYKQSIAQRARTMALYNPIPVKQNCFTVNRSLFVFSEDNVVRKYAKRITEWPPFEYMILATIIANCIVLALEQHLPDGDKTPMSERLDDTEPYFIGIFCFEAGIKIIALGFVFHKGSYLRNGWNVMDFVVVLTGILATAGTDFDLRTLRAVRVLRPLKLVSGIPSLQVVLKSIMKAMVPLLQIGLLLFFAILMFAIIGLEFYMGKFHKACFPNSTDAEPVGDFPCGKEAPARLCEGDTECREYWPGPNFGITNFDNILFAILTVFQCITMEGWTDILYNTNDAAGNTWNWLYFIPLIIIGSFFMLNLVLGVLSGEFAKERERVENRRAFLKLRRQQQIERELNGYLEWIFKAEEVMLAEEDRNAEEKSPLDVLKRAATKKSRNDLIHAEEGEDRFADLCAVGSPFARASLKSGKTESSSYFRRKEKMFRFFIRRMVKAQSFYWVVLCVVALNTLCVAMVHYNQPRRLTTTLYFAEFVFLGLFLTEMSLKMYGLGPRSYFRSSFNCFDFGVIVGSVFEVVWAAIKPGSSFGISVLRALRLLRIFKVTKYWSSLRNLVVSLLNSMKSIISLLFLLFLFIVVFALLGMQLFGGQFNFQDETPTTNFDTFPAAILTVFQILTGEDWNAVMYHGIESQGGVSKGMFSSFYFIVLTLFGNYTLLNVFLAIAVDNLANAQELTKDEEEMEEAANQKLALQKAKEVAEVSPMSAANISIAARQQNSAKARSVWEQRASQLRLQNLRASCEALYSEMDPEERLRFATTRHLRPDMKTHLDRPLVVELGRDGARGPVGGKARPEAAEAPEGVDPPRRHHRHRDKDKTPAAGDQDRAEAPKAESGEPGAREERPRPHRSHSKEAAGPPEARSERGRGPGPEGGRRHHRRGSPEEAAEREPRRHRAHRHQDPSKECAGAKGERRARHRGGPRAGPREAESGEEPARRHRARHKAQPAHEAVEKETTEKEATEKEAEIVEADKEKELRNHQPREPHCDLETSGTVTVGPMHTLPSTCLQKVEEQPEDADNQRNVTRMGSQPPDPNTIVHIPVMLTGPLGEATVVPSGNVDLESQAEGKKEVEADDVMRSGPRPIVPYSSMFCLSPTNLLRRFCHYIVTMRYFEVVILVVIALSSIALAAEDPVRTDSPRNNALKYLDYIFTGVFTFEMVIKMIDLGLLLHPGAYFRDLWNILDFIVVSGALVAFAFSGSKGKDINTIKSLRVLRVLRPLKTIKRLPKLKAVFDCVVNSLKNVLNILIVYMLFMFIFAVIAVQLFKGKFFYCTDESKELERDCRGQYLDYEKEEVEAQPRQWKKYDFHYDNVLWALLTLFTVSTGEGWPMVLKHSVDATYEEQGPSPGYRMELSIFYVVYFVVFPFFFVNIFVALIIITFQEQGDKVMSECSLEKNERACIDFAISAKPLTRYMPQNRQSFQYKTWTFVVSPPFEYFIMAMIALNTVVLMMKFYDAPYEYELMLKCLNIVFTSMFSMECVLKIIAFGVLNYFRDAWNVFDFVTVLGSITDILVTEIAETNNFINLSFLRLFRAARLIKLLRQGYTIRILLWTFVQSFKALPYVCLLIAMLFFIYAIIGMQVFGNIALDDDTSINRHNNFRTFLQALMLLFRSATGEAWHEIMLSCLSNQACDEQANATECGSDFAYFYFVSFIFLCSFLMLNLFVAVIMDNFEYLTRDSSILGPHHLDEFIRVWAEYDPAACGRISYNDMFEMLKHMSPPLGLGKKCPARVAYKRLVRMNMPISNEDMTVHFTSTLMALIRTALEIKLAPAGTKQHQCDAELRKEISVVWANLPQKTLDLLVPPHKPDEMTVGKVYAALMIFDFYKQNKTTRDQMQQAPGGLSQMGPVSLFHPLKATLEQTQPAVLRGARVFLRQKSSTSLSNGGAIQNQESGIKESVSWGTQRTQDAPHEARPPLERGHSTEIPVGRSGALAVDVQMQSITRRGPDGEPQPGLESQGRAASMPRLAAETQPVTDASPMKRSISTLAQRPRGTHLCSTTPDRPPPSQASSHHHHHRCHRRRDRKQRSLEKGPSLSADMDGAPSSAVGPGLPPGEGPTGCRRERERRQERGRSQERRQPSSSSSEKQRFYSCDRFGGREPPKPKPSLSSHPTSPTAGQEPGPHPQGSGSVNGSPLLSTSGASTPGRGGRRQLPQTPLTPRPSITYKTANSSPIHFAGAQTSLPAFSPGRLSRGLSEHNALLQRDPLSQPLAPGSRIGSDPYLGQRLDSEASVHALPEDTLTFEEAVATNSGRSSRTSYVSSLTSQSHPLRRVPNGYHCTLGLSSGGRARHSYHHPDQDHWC

[11] = in vivo, cited from earlier work

## CC(C)C[C@@H]1NC(=O)[C@H](CCCNC(=N)N)NC(=O)[C@@H]2CSSC[C@@H]3NC(=O)[C@H](CO)NC(=O)[C@H](C)NC(=O)CNC(=O)[C@H](CCCCN)NC(=O)CNC(=O)[C@H](CCCCN)NC(=O)[C@@H](N)CSSC[C@H](NC(=O)[C@H](CSSC[C@@H](C(N)=O)NC(=O)[C@H](CCCNC(=N)N)NC(=O)CNC1=O)NC(=O)[C@H](CC(=O)O)NC(=O)[C@H](Cc1ccc(O)cc1)NC(=O)[C@H](CO)NC(=O)[C@H]([C@@H](C)O)NC(=O)[C@H](CCCNC(=N)N)NC(=O)[C@H](CCCNC(=N)N)NC3=O)C(=O)N[C@@H]([C@@H](C)O)C(=O)NCC(=O)N[C@@H](CO)C(=O)N2 [CVIF] (H-CKGKGASCRRTSYDCCTGSCRLGRC-NH2; disulfide 1-16, 8-20, 15-25)
naïve C57BL6/J mice [1]
  Ataxia index: 7.3 ± 1.8
  Ataxia index (paw slips/distance covered): 7.3 ± 1.8 m
  Distance covered: 1.7 ± 0.4 m
  Number of paw slips: 10.5 ± 1.5
  Number of paw slips (printed with unit g): 10.5 ± 1.5 g
[2]
  Effect on PSP mechanical allodynia, 6.0 pmol/paw: remained unchanged; also recorded: did not produce any significant antiallodynic effect
  Mechanical PWT, PSP, 6.0 pmol/paw: 1.4 ± 0.1 g
[3]
  Safety profile: better safety profile in preclinical studies
CaV channel
  State dependence of affinity: higher affinity for channels in the inactivated state
[4]
  Activity across the pain models: inactive in these pain models; also recorded: not found effective in any of the peripheral pain models
  Effect on OIPN mechanical PWT, 6 pmol/paw: did not significantly change PWTs; also recorded: did not elicit significant antiallodynic effect
  Mechanical PWT, OIPN, 2.0 pmol/paw: 1.9 ± 0.2 g
  Mechanical PWT, OIPN, 6.0 pmol/paw: 1.7 ± 0.1 g
naïve C57BL6/J mice [5]
  Effect on basal thermal PWT: did not significantly change mechanical and thermal PWTs
  Thermal PWT: 50.8 ± 0.8 °C
[6]
  Effect of contralateral administration on OIPN mechanical PWT: did not significantly change mechanical PWTs; also recorded: did not reverse mechanical allodynia
  Mechanical PWT, OIPN, contralateral administration: 1.6 ± 0.4 g
Mouse inflammatory pain
  Effect on inflammatory pain: partially reversed the incapacitance of mouse inflammatory pain
  Side effects after subcutaneous administration: did not cause side effects
naïve C57BL6/J mice [7]
  Effect on basal mechanical PWT: did not significantly change mechanical and thermal PWTs
  Mechanical PWT: 3.1 ± 0.2 g
[8]
  Effect on CisIPN mechanical PWT: did not significantly change the PWTs; also recorded: did not produce any significant antiallodynic effect
  Mechanical PWT, CisIPN, 2 pmol/paw: 2.0 ± 0.3 g
[9]
  Effect on PSP thermal allodynia: did not reverse thermal allodynia
  Thermal PWT, PSP, 2.0 pmol/paw: 48.9 ± 0.4 °C

## C[C@@H](O)[C@@H]1NC(=O)[C@H](Cc2ccc(O)cc2)NC(=O)[C@@H]2C[C@@H](O)CN2C(=O)[C@H](CC(N)=O)NC(=O)[C@@H]2CSSC[C@@H]3NC(=O)[C@H](CO)NC(=O)[C@H](CO)NC(=O)CNC(=O)[C@@H]4C[C@@H](O)CN4C(=O)[C@H](CO)NC(=O)[C@H](CCCCN)NC(=O)[C@@H](N)CSSC[C@H](NC(=O)[C@H](CSSC[C@@H](C(=O)N[C@@H](Cc4ccc(O)cc4)C(N)=O)NC(=O)[C@H](CCCN=C(N)N)NC(=O)[C@H](CCCCN)NC1=O)NC(=O)[C@H](CC(N)=O)NC(=O)[C@H](Cc1ccc(O)cc1)NC(=O)[C@H](CO)NC(=O)[C@H]([C@@H](C)O)NC(=O)[C@@H]1C[C@@H](O)CN1C(=O)[C@H](CO)NC3=O)C(=O)N[C@@H](CCCN=C(N)N)C(=O)N[C@@H](CO)C(=O)N2 [GVIA]
naïve C57BL6/J mice [1]
  Ataxia index: 6.9 ± 1.7
  Ataxia index (paw slips/distance covered): 6.9 ± 1.7 m
  Distance covered: 1.7 ± 0.2 m
  Number of paw slips: 11.3 ± 2.8
[10]
  IC50: 11.2 ± 3.3 nM
naïve C57BL6/J mice [5]
  Effect on basal thermal PWT: did not significantly change mechanical and thermal PWTs
naïve C57BL6/J mice [7]
  Effect on basal mechanical PWT: did not significantly change mechanical and thermal PWTs

## CSCC[C@@H]1NC(=O)[C@H](CC(C)C)NC(=O)[C@H](CCCNC(=N)N)NC(=O)[C@H](CO)NC(=O)[C@@H]2CSSC[C@@H]3NC(=O)[C@H](CO)NC(=O)CNC(=O)[C@H]([C@@H](C)O)NC(=O)[C@H](CSSC[C@H](N)C(=O)N[C@@H](CCCCN)C(=O)NCC(=O)N[C@@H](CCCCN)C(=O)NCC(=O)N[C@@H](C)C(=O)N[C@@H](CCCCN)C(=O)N2)NC(=O)[C@H](CSSC[C@@H](C(N)=O)NC(=O)[C@H](CCCCN)NC(=O)CNC(=O)[C@H](CO)NC(=O)[C@H](CCCNC(=N)N)NC3=O)NC(=O)[C@H](CC(=O)O)NC(=O)[C@H](Cc2ccc(O)cc2)NC1=O [MVIIA]
naïve C57BL6/J mice [1]
  Ataxia index: 6.7 ± 1.6
  Ataxia index (paw slips/distance covered): 6.7 ± 1.6 m
  Distance covered: 1.8 ± 0.3 m
  Number of paw slips: 11.0 ± 1.8
  Number of paw slips (printed with unit g): 11.0 ± 1.8 g
naïve C57BL6/J mice [5]
  Effect on basal thermal PWT: did not significantly change mechanical and thermal PWTs
[11]; po
  Oral bioavailability and CNS access: Poor oral bioavailability and CNS access
[11]
  Plasma half-life: short plasma half-life
naïve C57BL6/J mice [7]
  Effect on basal mechanical PWT: did not significantly change mechanical and thermal PWTs
